{"source": "patent US9226912B2", "about": "“Acetyltanshinone IIA (ATA) as anticancer agent” (Nanyang Technological University, priority 2011, dated 2016)", "key": {"SiHa": {"tested_on": "SiHa", "assay": "IC50 and LC50 of ATA at 48 h", "type": "cell-based", "settings": "Homo sapiens, SiHa cervical cancer"}, "ROS in MDA-MB-435 cells": {"tested_on": "ROS in MDA-MB-435 cells", "assay": "ROS generation and its prevention by PG", "type": "cell-based, human", "settings": "MDA-MB-435 cells", "method": "(A) PG prevented ATA-induced cell death. Three concentrations of PG were tested for their protective effects on ATA-induced cell death. The cell viability was measured by SRB assay. (* p<0.01). (B) PG protected ROS generation caused by ATA treatment. […] All the experiments were performed at least three times. The results presented in this figure are the average of three experiments. Error bar represents standard deviation. Scale bar=20 μm.\nIt was further tested, whether PG could prevent ROS generation after ATA treatment."}, "[1]": {"assay": "Solubility relative to TIIA", "type": "physicochemical", "settings": "in both DMSO and PBS", "method": "A mixture of TIIA (2.04 g), sodium acetate (2.5 g), acetic anhydride (18 ml), and anhydrous zinc powder (6 g) is stirred in a boiling water bath for 3 h, then immediately filtrated by using a vacuum filtration system to remove the insoluble residues. The filtrate is diluted with water (300 ml), and then heated to boil. The resulting solution is cooled at room temperature and filtered to give a solid product (1.80 g). The product can be further crystallized using 95% ethanol to produce the final product (1.51 g) acetyltanshinone IIA (ATA) with chemical designation of 1,6,6-trimethyl-8,9-dihydro-10,11-diacetoxyl-7H-naphtho[1,2-g][1]benzofuran (FIG. 2). ATA appeared in white color, which is totally different from its original red color."}, "ERα in BT474 cells": {"target": "T1, ERα in BT474 cells (Homo sapiens, UniProt P03372)", "T1 construct": "endogenous in cells; host or cells: BT474 human breast cancer cells", "assay": "ERα protein level by Western blotting", "type": "cell-based", "settings": "6 μM ATA or 1 μM fulvestrant", "method": "Cells were treated with 6 μM ATA or 1 μM fulvestrant for indicated times and analyzed by Western blotting."}, "MCF-7": {"tested_on": "MCF-7", "assay": "IC50 and LC50 of ATA at 48 h", "type": "cell-based", "settings": "Homo sapiens, MCF7, MCF-7 breast cancer"}, "HeLa cells": {"tested_on": "HeLa cells", "assay": "ATA-induced cell death by cell counting under a microscope", "type": "cell-based", "settings": "10 μM or 20 μM ATA, 24 h or 48 h, YFP-Bcl-2 transfected HeLa", "method": "HeLa cells were treated with 10 μM ATA for 12, 24, 36, and 48 h. The β-tubulin protein was probed as a loading control. […] HeLa cells were pre-treated with 2 μM pan-caspase inhibitor (z-VAD-fmk) for 2 h before ATA addition. Then 10 μM or 20 μM ATA were added. After 24 h and 48 h treatment, the number of died cells was counted under a microscope. (* p<0.01, compared with cells treated with ATA only). Control: cells without any treatment.\nOverexpression of Bcl-2 inhibited ATA-induced cell death. HeLa cells transfected with either yellow fluorescent protein (YFP) (vector control) or YFP-Bcl-2 (Bcl-2) were treated with ATA at 10 or 20 μM. The percentage of cell death from YFP-positive cells was determined by cell counting under a fluorescence microscope. (* p<0.01, compared with vector control groups).\nThe inventors of the present invention have shown for the first time that ATA can activate the apoptotic pathway in cancer cells. […]\nHeLa cells transfected with YFP-Bcl-2 or YFP only were treated with 10 μM or 20 μM ATA. After 24 h or 48 h treatment, the percentage of cell death in each sample was calculated by counting the numbers of fluorescence-positive cells either live (attached with a normal cell morphology) or dead (detached with a shrunk morphology) under a fluorescence microscope. […]"}, "[2]": {"tested_on": "xenografted tumors derived from human melanoma MDA-MB-435 cells", "assay": "Xenografted tumors in nude mice", "type": "in vivo", "settings": "30 mg/kg, 3×/week intraperitoneal, four weeks", "method": "ATA (▴ 30 mg/kg), etoposide (▪ ETS, 20 mg/kg) and vehicle control (◯) were injected into mice 3×/week via intraperitoneal injection. Average tumor size (A) and mice body weight (B) were measured from five mice.\nThe anti-tumour effect of ATA was examined in nude mice (FIG. 13 and FIG. 14) carrying solid tumours generated by injecting human melanoma MDA-MB-435 cells into the mice subcutaneously. The tumour size and mouse body weight were monitored over a period of four weeks."}, "HeLa": {"tested_on": "HeLa", "assay": "IC50 and LC50 of ATA at 48 h", "type": "cell-based", "settings": "Homo sapiens, HeLa cervical cancer"}, "MCF-7 cells": {"tested_on": "MCF-7 cells", "assay": "Combinatorial effect of ATA with paclitaxel, MTT assay", "type": "cell-based", "settings": "Homo sapiens, read-out: cell growth inhibition rate", "method": "The effect was determined by measuring the rates of cell growth inhibition using MTT assay. (* p<0.01, compared with cells treated with either paclitaxel alone or ATA alone).\nThe inventors of the present invention have shown for the first time that ATA can increase the cytotoxic effect of paclitaxel. In the tests (FIG. 16) with five concentrations of ATA at 10, 5, 2.5, 1.25, 0.625 μM and five concentrations of paclitaxel at 1000, 100, 10, 1, 0.1 nM were used."}, "MDA-MB-231": {"tested_on": "MDA-MB-231", "assay": "Growth inhibition at 72 h by MTT assay"}, "BT474": {"tested_on": "BT474", "assay": "Growth inhibition at 72 h by MTT assay"}, "[3]": {"tested_on": "Four types of cancer cells", "assay": "ATA versus TIIA, cell viability by MTT assay after 48 h", "type": "cell-based", "settings": "10 μM or 20 μM", "method": "Four types of cancer cells were treated with ATA or TIIA at either 10 μM or 20 μM and the cell viability was measured by MTT assay after 48 h of compound addition. * p<0.01."}, "HL-60": {"tested_on": "HL-60", "assay": "IC50 and LC50 of ATA at 48 h", "type": "cell-based", "settings": "Homo sapiens, HL-60 leukemia"}, "SK-BR-3": {"tested_on": "SK-BR-3", "assay": "IC50 and LC50 of ATA at 48 h", "type": "cell-based", "settings": "Homo sapiens, SK-BR-3 breast cancer"}}, "note": "Where two headings read alike, the source gives them in different places.", "data": [{"smiles": "CC(=O)Oc1c(OC(C)=O)c2c(C)coc2c2ccc3c(c12)CCCC3(C)C", "note": "[ATA, 1,6,6-trimethyl-8,9-dihydro-10,11-diacetoxyl-7H-naphtho[1,2-g][1]benzofuran]", "values": [{"measurement": "CC50", "setting": "SiHa", "value": "12.3 ± 0.68", "unit": "µM"}, {"measurement": "IC50", "setting": "SiHa", "value": "1.96 ± 0.49", "unit": "µM"}, {"measurement": "time of maximum ROS level after ATA addition", "setting": "ROS in MDA-MB-435 cells", "value": 2, "unit": "h"}, {"measurement": "higher solubility than TIIA", "setting": "[1]", "value": 22, "unit": "fold"}, {"measurement": "level of ERα", "setting": "ERα in BT474 cells", "value": "reduced the level of ERα and HER2"}, {"measurement": "CC50", "setting": "MCF-7", "value": "7.64 ± 0.3", "unit": "µM"}, {"measurement": "IC50", "setting": "MCF-7", "value": "1.39 ± 0.64", "unit": "µM"}, {"measurement": "percentage of cell death in Bcl-2 over expressing cells versus normal Bcl-2 level", "setting": "HeLa cells", "value": "significantly lower"}, {"measurement": "average body weight versus control mice", "setting": "[2]", "value": "did not significantly decrease"}, {"measurement": "tumour growth", "setting": "[2]", "value": "significant inhibition on tumour growth"}, {"measurement": "CC50", "setting": "HeLa", "value": "10.9 ± 1.45", "unit": "µM"}, {"measurement": "IC50", "setting": "HeLa", "value": "1.39 ± 0.13", "unit": "µM"}, {"measurement": "inhibition at 2.5 µM", "setting": "MCF-7 cells; MCF7, 2.5 μM ATA in combination with paclitaxel 1 nM", "value": "~89", "unit": "%"}, {"measurement": "inhibition at 2.5 µM", "setting": "MCF-7 cells; MCF7, ATA alone at 2.5 μM", "value": 71, "unit": "%"}, {"measurement": "IC50", "setting": "MDA-MB-231; Homo sapiens, MDA-MB-231, 72 h", "value": "7.98 ± 0.18", "unit": "µM"}, {"measurement": "inhibition at 3.13 µM", "setting": "MDA-MB-231; Homo sapiens, MDA-MB-231, 72 h, read-out: growth inhibition rate", "value": 32.3, "unit": "%"}, {"measurement": "IC50 value at 72 h lower in ER-positive than ER-negative cells", "setting": "MDA-MB-231; MCF-7 and T47D versus MDA-MB-231", "value": "5.4-5.7 fold"}, {"measurement": "IC50 ratio of tamoxifen/ATA", "setting": "MDA-MB-231; MDA-MB-231 (ER−), 72 h", "value": 2.7}, {"measurement": "Ratio of ER−/ER+ 231/MCF-7", "setting": "MDA-MB-231; ratio of IC50 at 72 h, MDA-MB-231 over MCF-7", "value": 5.4}, {"measurement": "Ratio of ER−/ER+ 231/T47D", "setting": "MDA-MB-231; ratio of IC50 at 72 h, MDA-MB-231 over T47D", "value": 5.7}, {"measurement": "IC50 ratio of tamoxifen/ATA", "setting": "BT474; BT474 (ER+/HER2+), 72 h", "value": 6.2}, {"measurement": "IC50", "setting": "BT474; Homo sapiens, BT-474, 72 h", "value": 1, "unit": "µM"}, {"measurement": "inhibition at 3.13 µM", "setting": "BT474; Homo sapiens, BT-474, 72 h, read-out: growth inhibition rate", "value": 146, "unit": "%"}, {"measurement": "growth inhibition effect compared with TIIA", "setting": "[3]", "value": "stronger growth inhibition effect than TIIA"}, {"measurement": "CC50", "setting": "HL-60", "value": "8.53 ± 0.2", "unit": "µM"}, {"measurement": "IC50", "setting": "HL-60", "value": "2.98 ± 0.37", "unit": "µM"}, {"measurement": "IC50", "setting": "SK-BR-3", "value": 0.29, "unit": "µM"}, {"measurement": "CC50", "setting": "SK-BR-3; kill 50% of the cells", "value": "5.1 ± 1.92", "unit": "µM"}]}]}
